Test [1] has as its system L. infantum axenic amastigotes. The note with it: cited from earlier work. The source says:
(§1) L. infantum is an Old World species and a member of the L. donovani complex, causing visceral disease in the Mediterranean basin, which has subsequently spread to Latin America where it is sometimes known as L. chagasi. Like L. mexicana, L. pifanoi is a New World species, however it is part of the subgenus Viannia whereas L. mexicana is part of the subgenus Leishmania which actually makes it ...

Test [2] concerns L. mexicana ∆lpg1 promastigotes (lacking LPG). Put plainly: alamarBlue viability assay, ∆lpg1 mutant promastigotes. Format: cell-based, Leishmania mexicana. The note with it: alamarBlue viability vs DMSO control, 2–100 µM peptide, 1 h preincubation serum-free at 26 °C, then 24 h, mean (range) of at least 3 independent experiments in triplicate. The method, then:
Previously it has been postulated that LPG, which forms a thick negatively charged layer, protects the promatigote parasite from cationic AMPs by capturing them and preventing interaction with the cell surface. […] To test this hypothesis the five temporins were assayed for their activity against L. mexicana promastigotes engineered to lack LPG, ∆lpg1 [23]. […] The results obtained were perhaps surprising, with the temporins showing little or no difference in efficacy against the ∆lpg1 mutant when compared with the wild type L. mexicana promastigotes (Figure 1A and Figure 2A; Table 2). However, it is notable the that efficacy of temporins A and B have previously been reported to be unchanged against a similar, although less defined, L. donovani LPG mutant.
(§2) Figure 2 Activity of the temporin peptides against ∆lpg1 and ∆lpg2 promastigote L. mexicana. Using the alamarBlue® assay system, L. mexicana ∆lpg1 (A) and ∆lpg2 (B) mutant promastigote viability in the presence of various concentrations (2–100 µM) of the temporin peptides was determined with respect to a DMSO control. Amphotericin B (2–100 µM) was utilized as a positive control. Data points represent the mean of 3 independent experiments performed in triplicate. Standard deviation indicated. Cell viability <50% indicated by red bars.
(§3) Leishmania mexicana (MNYC/BZ/62/M379) wild type and LPG mutant parasites (∆lpg1 [23] and ∆lpg2 [25]) were maintained at 26 °C in Schneider’s Drosophila media (Sigma Aldrich) supplemented with heat inactivated foetal bovine sera (15% for promastigotes and mutants, and 20% for amastigotes; Biosera). Promastigotes were transformed into axenic amastigotes by a pH and temperature shift as previously described. Cells were counted using a Neubauer Improved Haemocytometer. Cytotoxicity analyses were performed in 96-well plates (Costar, Corning Inc., Amsterdam, The Netherlands) using alamarBlue® (Life Technologies, Paisley, UK) with some modifications to the published, optimized protocol. Briefly, to mitigate against the effects of serum on the efficacy of the peptides, promastigote and amastigote L. mexicana were preincubated (26 °C for promatastigotes; 33 °C for amastigotes) with the temporins (2–100 µM) in 10 µL of serum-free media at 4 × 10^6 mL^−1 for 1 h before the addition of 90 µL of complete media. Following incubation at the appropriate temperature for 24 h, 10 µL of alamarBlue® was added to each well and the plates incubated for a further 4 h prior to assessing cell viability using a fluorescent plate reader (Biotek UK, Potton, UK; 560EX nm/600EM nm). All data points were in triplicate, with amphotericin B as positive and DMSO as negative controls. All of the experiments described above were carried out on a minimum of three separate occasions to ensure a robust data set was collected.
(In general: Alamar Blue is a resazurin reagent that responds to reducing activity.)

Test [3] has as its system L. mexicana ∆lpg2 promastigotes (lacking LPG and PPG). Put plainly: alamarBlue viability assay, ∆lpg2 mutant promastigotes. Format: cell-based, Leishmania mexicana. The note with it: for ED50 L. mexicana ∆lpg2: ∆lpg2 mutant promastigotes, alamarBlue viability vs DMSO control, 2–100 µM peptide, 1 h preincubation serum-free at 26 °C, then 24 h, mean (range) of at least 3 independent experiments in triplicate. As for the experimental part:
as §2
Proteophosphogylcans (PPGs) are a large range of secreted and cell surface associated parasite glycoconjugates which, like LPG, carry a negative charge. Both axenic and intramacrophage L. mexicana amastigotes lack cell surface associated PPG, although the intracellular parasites do secrete a form of PPG known as aPPG [26, 27]. Targeted deletion of lpg2, a Golgi GDP-Man transporter, to create ∆lpg2 [25] prevented the formation of the phosphoglycan repeats that make up the backbone of LPG and PPG leaving the promastigote surface devoid of these negatively charged macromolecules. […] Like the temporins, amphotericin B is a pore forming compound [28].
as §3

Test [4] has as its system L. mexicana promastigote (wild type). Put plainly: alamarBlue viability assay, wild type promastigotes. Type of test: cell-based, Leishmania mexicana (MNYC/BZ/62/M379). The note with it: alamarBlue viability vs DMSO control, 2–100 µM peptide, 1 h preincubation in serum-free media at 26 °C, then complete media 24 h, alamarBlue 4 h, fluorescence, mean (range) of at least 3 independent experiments in triplicate. As for the experimental part:
(§4) Figure 1 Activity of the temporin peptides against wild type promastigote and amastigote L. mexicana. Using the alamarBlue® assay system, L. mexicana promastigote (A) and amastigote (B) viability in the presence of various concentrations (2–100 µM) of the temporin peptides was determined with respect to a DMSO control. Amphotericin B (2–100 µM) was utilized as a positive control. Data points represent the mean of 3 independent experiments performed in triplicate. Standard deviation indicated. Cell viability <50% indicated by red bars.
as §3

The subject of another test is L. mexicana amastigote. Kind of test: alamarBlue viability assay, axenic amastigotes. Format: cell-based, Leishmania mexicana (MNYC/BZ/62/M379). To be noted: for ED50 L. mexicana Amastigote: alamarBlue viability vs DMSO control, 2–100 µM peptide, 1 h preincubation in serum-free media at 33 °C, then complete media 24 h, alamarBlue 4 h, fluorescence, mean (range) of at least 3 independent experiments in triplicate. The method, then: as §4, §3

In test [5] the test system is L. pifanoi axenic amastigotes. To be noted: cited from earlier work.
From the text: as §1

The test system of a further test is L. donovani LPG mutant. To be noted: similar, less defined LPG mutant; cited from earlier work. An excerpt: Previously it has been postulated that LPG, which forms a thick negatively charged layer, protects the promatigote parasite from cationic AMPs by capturing them and preventing interaction with the cell surface. […] To t ...

Bounds are passed on as bounds.

We go through 5 compounds from PMC6272152, “The Role of Phosphoglycans in the Susceptibility of Leishmania mexicana to the Temporin Family of Anti-Microbial Peptides” (Molecules, 2015).

Turning to “FLSGIVGMLGKLF-NH2 [Temporin 1Sa, amphibian-derived temporin antimicrobial peptide, […]-NH2]”, in test [1], the “activity against axenic amastigotes of L. infantum” value is listed as “significant activity”. In addition, the “ED50 L. mexicana ∆lpg1” value in test [2] is listed as 6 (3–18) µM. The “ED50 L. mexicana ∆lpg2” value in test [3] is listed as 31 (28–35) µM; in test [3] (listed as 1Sa), 31 µM. Besides, the figures for the “ED50 L. mexicana Promastiogte” value in test [4] and in test [4] (listed as temporin 1Sa) were 4 (3–13) µM and 4 µM, respectively. In addition, the entries for the “ED50 L. mexicana Amastigote” value in the test with L. mexicana amastigote and with L. mexicana amastigote (listed as 1Sa) were 42 (35–44) µM and 42 µM, respectively.

Regarding “LLPIVGNLLKSLL-NH2 [Temporin B, amphibian-derived temporin antimicrobial peptide, […]-NH2]”, the “activity against axenic amastigotes of L. pifanoi” value in test [5] was “significant activity”. Besides, the “ED50 L. mexicana ∆lpg1” value in test [2] is reported as 39 (28–70) µM. Moreover, the “ED50 L. mexicana ∆lpg2” value in test [3] is 41 (40–41) µM. Also, in the test on L. donovani LPG mutant, the “efficacy against L. donovani LPG mutant” value is recorded as “unchanged”. For the same compound, the “ED50 L. mexicana Promastiogte” value in test [4] was 38 (24–64) µM; in test [4] (listed as temporin B), 38 µM. In the test on L. mexicana amastigote (100 µM, alamarBlue), the “activity against amastigote form at the maximal concentration tested” value is “inactive”. Further, the “ED50 L. mexicana Amastigote” value with L. mexicana amastigote was more than 100 µM.

`C[C@@H]1[C@H](O)[C@@H](C)/C=C/C=C/C=C/C=C/C=C/C=C/C=C/[C@H](O[C@@H]2O[C@H](C)[C@@H](O)[C@H](N)[C@@H]2O)C[C@@H]2O[C@](O)(C[C@@H](O)C[C@@H](O)[C@H](O)CC[C@@H](O)C[C@@H](O)CC(=O)O[C@H]1C)C[C@H](O)[C@H]2C(=O)O` [amphotericin B, Amphotericin B, reference compound]: in test [3] (positive control, 2–100 µM, alamarBlue, Figure 2B), the “efficacy against ∆lpg2 compared with wild type promastigotes” value is “less effective”.

For “FLPLIGRVLSGIL-NH2 [Temporin A, amphibian-derived temporin antimicrobial peptide, […]-NH2]”, the “activity against axenic amastigotes of L. pifanoi” value in test [5] is listed as “significant activity”. In test [2], the “ED50 L. mexicana ∆lpg1” value was 11 (8–16) µM. Besides, the “ED50 L. mexicana ∆lpg2” value in test [3] was 26 (21–39) µM; in test [3] (listed as temporin A), 26 µM. In addition, the “efficacy against L. donovani LPG mutant” value in the test with L. donovani LPG mutant is “unchanged”. Further, the results for the “ED50 L. mexicana Promastiogte” value in test [4] and in test [4] (listed as temporin A) were 8 (6–14) µM and 8 µM, respectively. Besides, the figures for the “ED50 L. mexicana Amastigote” value with L. mexicana amastigote and in the test on L. mexicana amastigote (listed as temporin A) were approximately 100 µM and “approximately 100 µM”, respectively.

As for “FVQWFSKFLGRIL-NH2 [Temporin L, amphibian-derived temporin antimicrobial peptide, …-NH2]”, the “ED50 L. mexicana ∆lpg1” value in test [2] is listed as 4 (3–6) µM. Further, the results for the “ED50 L. mexicana ∆lpg2” value in test [3] and in test [3] (listed as L) were 9 (8–12) µM and 9 µM, respectively. In addition, the “ED50 L. mexicana Promastiogte” value in test [4] is 5 (5–6) µM; in test [4] (listed as L), 5 µM. Also, the “ED50 L. mexicana Amastigote” value is reported as 83 (46–93) µM with L. mexicana amastigote and 83 µM with L. mexicana amastigote (listed as L).
